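Five concentrations, 48 hours, 96-well plates. GI50: concentration for 50% inhibition of growth. Definition used: TGI = concentration required for complete inhibition of growth.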
Legend:
Experiment in all cases: NCI anticancer screen, dose series, 48 h
[1] = system: 786-0 renal
[2] = system: A498 renal
[3] = system: A549 NSCLC
[4] = system: ACHN renal
[5] = system: BT-549 breast
[6] = system: CAKI-1 renal
[7] = system: CCRF-CEM leukemia
[8] = system: COLO 205 colon
[9] = system: DU-145 prostate
[10] = system: EKVX NSCLC
[11] = system: HCC-2998 colon
[12] = system: HCT-116 colon
[13] = system: HCT-15 colon
[14] = system: HL-60(TB) leukemia
[15] = system: HOP-62 NSCLC
[16] = system: HOP-92 NSCLC
[17] = system: HS 578T breast
[18] = system: HT29 colon
[19] = system: IGROV1 ovarian
[20] = system: K-562 leukemia
[21] = system: KM12 colon
[22] = system: LOX IMVI melanoma
[23] = system: M14 melanoma
[24] = system: MALME-3M melanoma
[25] = system: MCF7 breast
[26] = system: MDA-MB-231 breast
[27] = system: MDA-MB-435
[28] = system: MOLT-4 leukemia
[29] = system: NCI-H226 lung
[30] = system: NCI-H23 lung
[31] = system: NCI-H460 lung
[32] = system: NCI-H522 lung
[33] = system: NCI/ADR-RES ovarian
[34] = system: OVCAR-3 ovarian
[35] = system: OVCAR-4 ovarian
[36] = system: OVCAR-5 ovarian
[37] = system: OVCAR-8 ovarian
[38] = system: PC-3 prostate
[39] = system: RPMI-8226 leukemia
[40] = system: RXF 393 renal
[41] = system: SF-268 CNS
[42] = system: SF-295 CNS
[43] = system: SF-539 CNS
[44] = system: SK-MEL-2 melanoma
[45] = system: SK-MEL-28 melanoma
[46] = system: SK-MEL-5 melanoma
[47] = system: SK-OV-3 ovarian
[48] = system: SN12C renal
[49] = system: SNB-19 CNS
[50] = system: SNB-75 CNS
[51] = system: SR leukemia
[52] = system: SW-620 colon
[53] = system: T-47D breast
[54] = system: TK-10 renal
[55] = system: U251 CNS
[56] = system: UACC-257 melanoma
[57] = system: UACC-62 melanoma
[58] = system: UO-31 renal

CCCC[C@@H]1NC(=O)[C@H](CCCCN)NC(=O)[C@H](CCCNC(=N)N)NC(=O)[C@H](CC(C)C)NC(=O)[C@@H](NC(=O)[C@H](Cc2cccc(Cl)c2)NC(=O)[C@@H]2CCCN2C(=O)[C@@H](NC(C)=O)C(C)C)CCSSC[C@@H](C(=O)N[C@@H](CCCCN)C(=O)N2CCC[C@H]2C(=O)N2CCC[C@H]2C(=O)N[C@@H](CCC(=O)O)C(N)=O)NC(=O)[C@H](Cc2ccccc2)NC(=O)[C@H](CO)NC(=O)[C@H](C)NC(=O)[C@@H]2CCCN2C1=O
GI50 [1]: > 50 µM | TGI [1]: > 50 µM | GI50 [2]: > 50 µM | TGI [2]: > 50 µM | GI50 [3]: > 50 µM | TGI [3]: > 50 µM | GI50 [4]: > 50 µM | TGI [4]: > 50 µM | GI50 [5]: > 50 µM | TGI [5]: > 50 µM | GI50 [6]: > 50 µM | TGI [6]: > 50 µM | GI50 [7]: > 50 µM | TGI [7]: > 50 µM | GI50 [8]: > 50 µM | TGI [8]: > 50 µM | GI50 [9]: > 50 µM | TGI [9]: > 50 µM | GI50 [10]: > 50 µM | TGI [10]: > 50 µM | GI50 [11]: > 50 µM | TGI [11]: > 50 µM | GI50 [12]: > 50 µM | TGI [12]: > 50 µM | GI50 [13]: > 50 µM | TGI [13]: > 50 µM | GI50 [14]: > 50 µM | TGI [14]: > 50 µM | GI50 [15]: > 50 µM | TGI [15]: > 50 µM | GI50 [16]: > 50 µM | TGI [16]: > 50 µM | GI50 [17]: > 50 µM | TGI [17]: > 50 µM | GI50 [18]: > 50 µM | TGI [18]: > 50 µM | GI50 [19]: > 50 µM | TGI [19]: > 50 µM | GI50 [20]: > 50 µM | TGI [20]: > 50 µM | GI50 [21]: > 50 µM | TGI [21]: > 50 µM | GI50 [22]: > 50 µM | TGI [22]: > 50 µM | GI50 [23]: > 50 µM | TGI [23]: > 50 µM | GI50 [24]: > 50 µM | TGI [24]: > 50 µM | GI50 [25]: > 50 µM | TGI [25]: > 50 µM | GI50 [26]: > 50 µM | TGI [26]: > 50 µM | GI50 [27]: > 50 µM | TGI [27]: > 50 µM | GI50 [28]: > 50 µM | TGI [28]: > 50 µM | GI50 [29]: > 50 µM | TGI [29]: > 50 µM | GI50 [30]: > 50 µM | TGI [30]: > 50 µM | GI50 [31]: > 50 µM | TGI [31]: > 50 µM | GI50 [32]: > 50 µM | TGI [32]: > 50 µM | GI50 [33]: > 50 µM | TGI [33]: > 50 µM | GI50 [34]: > 50 µM | TGI [34]: > 50 µM | GI50 [35]: > 50 µM | TGI [35]: > 50 µM | GI50 [36]: > 50 µM | TGI [36]: > 50 µM | GI50 [37]: > 50 µM | TGI [37]: > 50 µM | GI50 [38]: > 50 µM | TGI [38]: > 50 µM | GI50 [39]: > 50 µM | TGI [39]: > 50 µM | GI50 [40]: > 50 µM | TGI [40]: > 50 µM | GI50 [41]: > 50 µM | TGI [41]: > 50 µM | GI50 [42]: > 50 µM | TGI [42]: > 50 µM | GI50 [43]: > 50 µM | TGI [43]: > 50 µM | GI50 [44]: > 50 µM | TGI [44]: > 50 µM | GI50 [45]: > 50 µM | TGI [45]: > 50 µM | GI50 [46]: > 50 µM | TGI [46]: > 50 µM | GI50 [47]: > 50 µM | TGI [47]: > 50 µM | GI50 [48]: > 50 µM | TGI [48]: > 50 µM | GI50 [49]: > 50 µM | TGI [49]: > 50 µM | GI50 [50]: > 50 µM | TGI [50]: > 50 µM | GI50 [51]: > 50 µM | TGI [51]: > 50 µM | GI50 [52]: > 50 µM | TGI [52]: > 50 µM | GI50 [53]: > 50 µM | TGI [53]: > 50 µM | GI50 [54]: > 50 µM | TGI [54]: > 50 µM | GI50 [55]: > 50 µM | TGI [55]: > 50 µM | GI50 [56]: > 50 µM | TGI [56]: > 50 µM | GI50 [57]: > 50 µM | TGI [57]: > 50 µM | GI50 [58]: > 50 µM | TGI [58]: > 50 µM

— PubChem BioAssay (NCI)
